Columns and labels:
[1] = target: β2AR Val114^3.33 to alanine mutant (Homo sapiens, UniProt P07550, V114A); settings: Chelikani et al. 2007; cited from earlier work
β2AR-T4L [2] = settings: for λmax ± SD for β2AR-T4L: bimane emission, excitation 350 nm, saturating ligand; for λmax ± SD for β2AR-T4L / Intensity at λmax Ligand/Intensity at λmax none, β2AR-T4L: 15 min incubation; for Intensity at λmax Ligand/Intensity at λmax none, β2AR-T4L: bimane fluorescence, ratio to no-ligand control
β2AR-T4L [3] = assay: Saturation binding of [3H]DHA to membranes from Sf9 cells expressing β2AR-T4L; parameters: species or system human
Procedure: FIG. 15. Affinity curves for adrenergic ligands binding to β2AR-T4L and wildtype β2AR. […] Binding experiments on membranes isolated from Sf9 insect cells expressing the receptors were performed as described above.
Membrane preparation from baculovirus-infected Sf9 cells was performed as described previously (Swaminath, et al., Mol Pharmacol 61, 65 (2002)). For each binding reaction, membranes containing 0.7 μg total membrane protein were used. Saturation binding of [^3H]-dihydroalprenolol (DHA) was measured by incubating membranes resuspended in 500 μl binding buffer (75 mM Tris, 12.5 mM MgCl2, 1 mM EDTA, pH 7.4, supplemented with 0.4 mg/ml BSA) with 12 different concentrations of [^3H]DHA (Perkin Elmer) between 20 pM and 10 nM. After 1 h incubation with shaking at 230 rpm, membranes were filtered from the binding reactions with a Brandel harvester, washed with binding buffer, and measured for bound [^3H]DHA with a Beckman LS6000 scintillation counter. […] For competition binding, membranes resuspended in 500 μl binding buffer were incubated with 0.5 nM [^3H]DHA plus increasing concentrations of the competing ligand (all compounds were purchased from Sigma). […] Each data point in the curves in FIGS. 2A and S1 represents the mean of three separate experiments, each done in triplicate. Binding data were analyzed by nonlinear regression analysis using Graphpad Prism.

wild-type β2AR = wild-type β2AR (Homo sapiens, UniProt P07550); assay: Saturation binding of [3H]DHA to membranes from Sf9 cells expressing wild-type β2AR

SMILES	ligand-induced change of bimane fluorescence (in words), β2AR-T4L (β2AR-T4L [2])	λmax ± SD for β2AR-T4L (β2AR-T4L [2]) [nm]	Intensity at λmax Ligand/Intensity at λmax none, β2AR-T4L (β2AR-T4L [2])	further results
CNC[C@H](O)c1ccc(O)c(O)c1 [(−)-epinephrine]				lowering of affinity by Val114 to alanine mutation [1]: 300 fold
CC(C)NC[C@H](O)c1ccc(O)c(O)c1 [(−)-isoproteronol, (−)-isoproterenol]	qualitatively similar decrease in intensity and rightward shift in λmax	455 ± 2	0.824 ± 0.006	
CCCc1ccccc1OCC(O)CNC(C)C (centres unmarked) [[^3H]DHA, [^3H]-dihydroalprenolol]				affinity for β2AR-T4L relative to wild-type β2AR (saturation binding) (β2AR-T4L [3]): wild-type affinity; Kd (β2AR-T4L [3]; saturation binding, β2AR-T4L, Sf9 membranes, read-out: Kd ± SE): 0.18 ± 0.016 nM; Bmax (wild-type β2AR): 30.0 ± 0.5 pmol/mg; Kd (wild-type β2AR; read-out: Kd ± SE): 0.161 ± 0.012 nM
CC(C)(C)NCC(O)c1ccc(O)c(CO)c1 (centres unmarked) [salbutamol]	larger responses	449 ± 1	0.928 ± 0.009	
